Source: patent US9730906B2, “α-derivatives of cis-monounsaturated fatty acids for use as medicines” (UNIVERSITAT DE LES ILLES BALEARS, priority 2008, dated 2017)

Assays:
A549 cells = experiment: Growth/viability of A549 lung cancer cells in culture (cell count); format: cell-based, human; design: key to Anti-tumour effect: + [inhibition of growth]; ++ [total halt of growth]; +++ [total removal of tumour cells]; conditions: for IC50: concentration that reduces the number of cells to half
Method in brief: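 A549 cells were grown in RPMI with 10% serum at 37 °C under 5% CO2 and exposed to fatty-acid derivatives at 0–400 μM, or at 150 μM for 48 h. Cell number was counted by flow cytometry and expressed as percent of untreated control.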

SF767 human tumour cells = experiment: Growth of SF767 tumour cells in culture; format: cell-based; design: key to Anti-tumour effect: + [inhibition of growth]; ++ [total halt of growth]; +++ [total removal of tumour cells]; key to Mechanism of action: P [anti-proliferative]; D [differentiation]; A [apoptosis]; conditions: for IC50: concentration that reduces the number of cells to half
Method: In a second experimental series, designed to discover whether these molecules are effective in treatment of different types of tumours, the effect of OHOD at various concentrations on human cells of different types of cancer was studied. These experiments were performed as described before, except that the M220 and HT-29 cell lines were cultured in DMEM medium and the MDA-MB-231 line was incubated in Leibowitz L-15 medium supplemented with 15% foetal bovine […]. […] Where the nature of the tumour process requires, application can be topical (use on the skin of active products for the treatment of melanoma and other cutaneous abnormalities of cancerous nature), which can be considered as cosmetic treatments when attempts are made to correct aesthetic defects.

hypertensive rats = experiment: Arterial pressure in hypertensive rats after 8-day treatment (Table 5); format: in vivo, rat; conditions: arterial pressure, hypertensive rats, 8-day treatment, 400 mg/kg oral
[1] = Levels of cholesterol, triglycerides and glucose in rats after oral treatment; format: in vivo, rat; conditions: for % control CHO (cholesterol) / % control TG (triglycerides): rats, daily dose of 600 mg/kg oral, untreated controls = 100%
Method: FIG. 13. The four bars, from left to right respectively, show the effect of treatments with vehicle (control, first bar), OHOD at 200 mg/kg (second bar), OHOD at 400 mg/kg (third bar) and OHOD at 600 mg/kg (fourth bar) on the cholesterol levels (group of four bars to the left), triglycerides (group of four bars in the middle) and glucose (group of four bars to the right). The treatments were oral in all cases and were maintained for 30 days. The values indicated are the average obtained in 6 animals per group.
FIG. 14. Effect of treatment with vehicle (control) or with the fatty acids of the invention (600 mg/kg) on the levels of cholesterol, triglycerides and glucose. The values indicated are the average of the values obtained in 6 animals. Each group of three bars represents treatment with a different fatty acid with the left bar corresponding to cholesterol, the middle bar to triglycerides and the right bar to glucose.
Metabolic diseases form a set of pathologies characterised by the accumulation or deficit of certain molecules (cholesterol, triglycerides, glucose, etc.) in the serum or tissues. These changes are the reflection of dysfunctions that are normally associated with errors in the activity of certain enzymes or in the control of these proteins. Among the most important metabolopathies are hypercholesterolemia (elevated levels of cholesterol), hypertriglyceridemia (elevated levels of triglycerides) and diabetes (elevated levels of glucose). These pathologies have high rates of incidence, morbidity and mortality, so that treatment is a first order necessity. […] For these experiments, the dose of fatty acid indicated (0, 200, 400 and 600 mg/kg) was supplied daily via the oral route. At the end of the treatment (30 days), blood was sampled from control and treated animals (n=6) and the levels of cholesterol, triglycerides and glucose were determined using standard colorimetric methods.
In a further experiment, the effect of various molecules at a single dose (600 mg/kg) was investigated. […] In this sense, modification on the α-carbon and the double bond in cis configuration are crucial elements for producing the therapeutic effect indicated above. […] Finally, the effect of α-derivatives of cis-monounsaturated fatty acids on the prevention of obesity was investigated. For this, a model of rat obesity induced by a cafeteria diet, where the hypercaloric food increases the weight of the animals very markedly, was used. There were various experimental groups (see Table 3), each of which consisted of 6 female Wistar Kyoto rats of 250-300 g in weight. All the animals received a standard diet for 2 weeks. In addition, 2 of the groups received an oral preventative pre-treatment of vehicle and the other groups received 300 mg/kg of the fatty acids indicated below. Afterwards, one of the control groups was maintained on a standard diet (lean control) and the other was fed on a cafeteria diet (obese control). The treated animal groups were fed on the cafeteria diet. Preventative pre-treatment was maintained for all the groups. After two weeks on these diets, the lean control group had increased their body weight by an average of 16±16 g, while the obese control group had increased their body weight by an average of 43±17 g (statistically significance difference, p<0.01).

[2] = Body weight of rats on cafeteria diet, no pre-treatment (Table 5); format: in vivo, rat; conditions: cafeteria diet for 2 weeks, 300 mg/kg daily oral, no pre-treatment
Text: The weight of treated animals was statistically less than the weight of obese control rats and statistically indistinguishable from that of lean control rats.

[3] = OHOD 200, 400, 600 mg/kg oral daily, 30 days, Sprague-Dawley rats, p<0.05

IC50 (A549 cells) [µM] | IC50 (SF767 human tumour cells) [µM] | Structure (SMILES) | Anti-tumour effect (A549 cells; A549, Lung) | Mechanism of action (A549 cells; A549, Lung) | effect on tumour cells at 200 to 400 μM (A549 cells; Doses of 200 to 400 μM, A549) | Anti-tumour effect (SF767 human tumour cells; SF-767, Glioma) | Mechanism of action (SF767 human tumour cells; SF-767, Glioma) | PA (control 214 mmHg) (hypertensive rats) [mmHg] | cholesterol levels [1, 3] | glucose levels [1, 3] | triglycerides levels [1, 3] | % control CHO (cholesterol) [1] [% control] | % control TG (triglycerides) [1] [% control] | Body weight (g) (control = 311 g) [2]
62 | 71 | CCCCCCCC/C=C\CCCCCCC(O)C(=O)O (stereo not drawn) [OHOD, α-Hydroxy-cis-Δ9-octadecenoic] | +++ | P D | total elimination of tumour cells | ++ | D | 146 | significant reductions | significant reductions | significant reductions | 55 | 38 | 292
61 | 73 | CCCCCCCC/C=C\CCCCCCC(OC)C(=O)O (stereo not drawn) [MOOD, α-Methoxy-cis-Δ9-octadecenoic] |  |  |  |  |  | 142 |  |  |  | 65 | 64 | 279
47 | 52 | CCCCCCCC/C=C\CCCCCCC(O)C(=O)[O-].[Na+] (centres unmarked) [Na-OHOD] |  |  |  |  |  | 128 |  |  |  | 51 | 32 | 281
